Test results reported in US20250144224A1, “ABL INHIBITORS AND USES THEREOF” (The Regents of the University of California, priority 2021, published 2025).

What was measured:
K562 cells (wild-type) = assay: CellTiter-Glo cell viability, K562 wild-type; settings: Homo sapiens, K562, 72 h, read-out: EC50 (nM) CTG K562 wt
[1] = system: K562 cells (CRISPR base-edited Bcr-Abl T315I); assay: CellTiter-Glo cell viability, K562 Bcr-Abl T315I; settings: Homo sapiens, K562, 72 h, read-out: EC50 (nM) CTG K562 T315I
Abl wt = Abl wt (Homo sapiens, UniProt P00519); assay: SelectScreen Z'LYTE kinase assay, Abl wt
Abl_T315I = Abl_T315I (Homo sapiens, UniProt P00519, T315I); assay: SelectScreen Z'LYTE kinase assay, Abl T315I
[2] = Parallel artificial membrane permeability assay (PAMPA); assay type: in vitro ADME
Protocol: PAMPA was performed by Quintara Discovery using the BioCoat Pre-coated PAMPA Plate System (Corning) as described previously (15) and based on manufacturer's recommendations. All compounds were assessed at 100 μM in PBS. Compound concentrations in donor and acceptor compartments were quantified using liquid chromatography-mass spectrometry (LC-MS) 5 h following compound addition into the donor compartment.

[3] = system: K562 CRISPRi or CRISPRa cells expressing sgRNAs targeting IFITM1-3; assay: Internally normalized cellular fluorescence uptake assay; settings: 24 h; TAMRA-N3 10 nM, TAMRA-PEG8-N3 1 μM, RapaTAMRA 1 nM

| EC50 (K562 cells (wild-type)) | EC50 [1] | SMILES | further results |
| --- | --- | --- | --- |
| 2.76 nM | 43.7 nM | Cc1ccc(C(=O)Nc2ccc(CN3CCN(C(=O)CCOCCOCCOCCOCCOCCOCCOCCOCCOCCOCCOCCOCCNC(=O)C4CCN(c5ncc(C(=O)Nc6ccc(OC(F)(F)Cl)cc6)cc5-c5ccn[nH]5)CC4)CC3)c(C(F)(F)F)c2)cc1C#Cc1cnc2cccnn12 [PonatiLink-1-12] | EC50 (Abl wt): 319 nM; EC50 (Abl_T315I): 3580 nM |
|  |  | O=C(Nc1ccc(OC(F)(F)Cl)cc1)c1cnc(N2CC[C@@H](O)C2)c(-c2ccn[nH]2)c1 [asciminib, reference compound] | artificial membrane permeability by PAMPA ([2]; 100 μM in PBS, 5 h, LC-MS): readily permeable |
|  |  | CO[C@H]1C[C@@H]2CC[C@@H](C)[C@@](O)(O2)C(=O)C(=O)N2CCCC[C@H]2C(=O)O[C@H]([C@H](C)C[C@@H]2CC[C@@H](OCCOCc3cn(CCOCCOCCOCCOCCOCCOCCOCCOCCNC(=O)c4ccc(C(=O)[O-])c(-c5c6ccc(=[N+](C)C)cc-6oc6cc(N(C)C)ccc56)c4)nn3)[C@H](OC)C2)CC(=O)[C@H](C)/C=C(\C)[C@@H](O)[C@@H](OC)C(=O)[C@H](C)C[C@H](C)/C=C/C=C/C=C/1C [RapaTAMRA] | change in relative cellular uptake with IFITM1-3 knockdown / overexpression [3]: decreased uptake upon knockdown of IFITM1-3 and increased uptake upon overexpression |
| 1.02 nM | 26.2 nM | Cc1ccc(C(=O)Nc2ccc(CN3CCN(C(=O)CCOCCOCCOCCOCCOCCOCCOCCOCCOCCOCCOCCOCCOCCOCCOCCOCCOCCOCCOCCOCCNC(=O)C4CCN(c5ncc(C(=O)Nc6ccc(OC(F)(F)Cl)cc6)cc5-c5ccn[nH]5)CC4)CC3)c(C(F)(F)F)c2)cc1C#Cc1cnc2cccnn12 [PonatiLink-1-20] | EC50 (Abl wt): 10.8 nM; EC50 (Abl_T315I): 215 nM |
| 1.4 nM | 28.7 nM | Cc1ccc(C(=O)Nc2ccc(CN3CCN(C(=O)CCOCCOCCOCCOCCOCCOCCOCCOCCOCCOCCOCCOCCOCCOCCOCCOCCNC(=O)C4CCN(c5ncc(C(=O)Nc6ccc(OC(F)(F)Cl)cc6)cc5-c5ccn[nH]5)CC4)CC3)c(C(F)(F)F)c2)cc1C#Cc1cnc2cccnn12 [PonatiLink-1-16] | EC50 (Abl wt): 82 nM; EC50 (Abl_T315I): 229 nM |
|  |  | CO[C@H]1C[C@@H]2CC[C@@H](C)[C@@](O)(O2)C(=O)C(=O)N2CCCC[C@H]2C(=O)O[C@H]([C@H](C)C[C@@H]2CC[C@@H](O)[C@H](OC)C2)CC(=O)[C@H](C)/C=C(\C)[C@@H](O)[C@@H](OC)C(=O)[C@H](C)C[C@H](C)/C=C/C=C/C=C/1C [rapamycin] | artificial membrane permeability by PAMPA ([2]; 100 μM in PBS, 5 h, LC-MS): readily permeable |
| 2.49 nM | > 300 nM | Cc1nc(Nc2ncc(C(=O)Nc3c(C)cccc3Cl)s2)cc(N2CCN(C(=O)CCOCCOCCOCCOCCOCCOCCOCCOCCOCCOCCNC(=O)C3CCN(c4ncc(C(=O)Nc5ccc(OC(F)(F)Cl)cc5)cc4-c4ccn[nH]4)CC3)CC2)n1 [DasatiLink-2] |  |
| 0.87 nM | 26.3 nM | Cc1ccc(C(=O)Nc2ccc(CN3CCN(C(=O)CCOCCOCCOCCOCCOCCOCCOCCOCCOCCOCCOCCOCCOCCOCCOCCOCCOCCOCCOCCOCCOCCOCCOCCOCCNC(=O)C4CCN(c5ncc(C(=O)Nc6ccc(OC(F)(F)Cl)cc6)cc5-c5ccn[nH]5)CC4)CC3)c(C(F)(F)F)c2)cc1C#Cc1cnc2cccnn12 [PonatiLink-1-24] |  |
|  |  | CC(C)n1nc(-c2ccc3oc(N)nc3c2)c2c(N)ncnc21 [sapanisertib] | artificial membrane permeability by PAMPA ([2]; 100 μM in PBS, 5 h, LC-MS): readily permeable |
|  |  | CO[C@@H]1C[C@@H]2CC[C@@H](C)[C@@](O)(O2)C(=O)C(=O)N2CCCC[C@@H]2C(=O)O[C@H]([C@H](C)C[C@H]2CC[C@H](OCCOCc3cn(CCOCCOCCOCCOCCOCCOCCOCCOCCC(=O)NCCCCn4nc(-c5ccc6oc(N)nc6c5)c5c(N)ncnc54)nn3)[C@H](OC)C2)CC(=O)[C@H](C)/C=C(\C)[C@H](O)[C@@H](OC)C(=O)[C@H](C)C[C@H](C)/C=C/C=C/C=C/1C [RapaLink-1] | artificial membrane permeability by PAMPA ([2]; PAMPA): no measurable permeability |
| 2.62 nM | > 300 nM | Cc1nc(Nc2ncc(C(=O)Nc3c(C)cccc3Cl)s2)cc(N2CCN(C(=O)CCOCCOCCOCCOCCOCCOCCNC(=O)C3CCN(c4ncc(C(=O)Nc5ccc(OC(F)(F)Cl)cc5)cc4-c4ccn[nH]4)CC3)CC2)n1 [DasatiLink-4] | EC50 (Abl wt): 1.81 nM |
|  |  | Cc1nc(Nc2ncc(C(=O)Nc3c(C)cccc3Cl)s2)cc(N2CCN(CCO)CC2)n1 [dasatinib] | artificial membrane permeability by PAMPA ([2]; 100 μM in PBS, 5 h, LC-MS): readily permeable |
| 2.94 nM | > 300 nM | Cc1nc(Nc2ncc(C(=O)Nc3c(C)cccc3Cl)s2)cc(N2CCN(C(=O)CCOCCOCCOCCOCCOCCOCCOCCOCCNC(=O)C3CCN(c4ncc(C(=O)Nc5ccc(OC(F)(F)Cl)cc5)cc4-c4ccn[nH]4)CC3)CC2)n1 [DasatiLink-3] | EC50 (Abl wt): 1.04 nM |

| SMILES | EC50 (K562 cells (wild-type)) | EC50 [1] | further results |
| --- | --- | --- | --- |
| Cc1ccc(C(=O)Nc2ccc(CN3CCN(C)CC3)c(C(F)(F)F)c2)cc1C#Cc1cnc2cc(OCCOCCOCCOCCOCCOCCOCCNC(=O)CCOCCOCCOCCOCCOCCOCCOCCOCCOCCOCCNC(=O)C3CCN(c4ncc(C(=O)Nc5ccc(OC(F)(F)Cl)cc5)cc4-c4ccn[nH]4)CC3)ccn12 [PonatiLink-2-7-10] | 0.43 nM | 0.94 nM |  |
| Cc1ccc(C(=O)Nc2ccc(CN3CCN(C)CC3)c(C(F)(F)F)c2)cc1C#Cc1cnc2cc(OCCOCCOCCOCCOCCOCCOCCNC(=O)CCOCCOCCOCCOCCNC(=O)C3CCN(c4ncc(C(=O)Nc5ccc(OC(F)(F)Cl)cc5)cc4-c4ccn[nH]4)CC3)ccn12 [PonatiLink-2-7-4] | 0.39 nM | 1.3 nM |  |
| Cc1ccc(C(=O)Nc2ccc(CN3CCN(C(=O)CCOCCOCCOCCOCCOCCOCCOCCOCCOCCOCCOCCOCCOCCOCCOCCOCCOCCOCCOCCOCCOCCOCCOCCOCCOCCOCCOCCOCCNC(=O)C4CCN(c5ncc(C(=O)Nc6ccc(OC(F)(F)Cl)cc6)cc5-c5ccn[nH]5)CC4)CC3)c(C(F)(F)F)c2)cc1C#Cc1cnc2cccnn12 [PonatiLink-1-28] | 1.82 nM | 49.1 nM |  |
| Cc1ccc(C(=O)Nc2ccc(CN3CCN(C)CC3)c(C(F)(F)F)c2)cc1C#Cc1cnc2cc(OCCOCCOCCOCCOCCOCCOCCNC(=O)CCOCCOCCOCCOCCOCCOCCOCCOCCNC(=O)C3CCN(c4ncc(C(=O)Nc5ccc(OC(F)(F)Cl)cc5)cc4-c4ccn[nH]4)CC3)ccn12 [PonatiLink-2-7-8] | 0.36 nM | 0.94 nM |  |
| Cc1ccc(C(=O)Nc2ccc(CN3CCN(C)CC3)c(C(F)(F)F)c2)cc1C#Cc1cnc2cc(OCCOCCOCCOCCOCCOCCOCCNC(=O)CCOCCOCCOCCOCCOCCOCCNC(=O)C3CCN(c4ncc(C(=O)Nc5ccc(OC(F)(F)Cl)cc5)cc4-c4ccn[nH]4)CC3)ccn12 [PonatiLink-2-7-6] | 0.38 nM | 1.06 nM |  |
